Entries after “also recorded” stand apart in the source; their conditions may differ. One block for each molecule: values may come before it.
Tests used:
FabG [1] = target: T1, FabG (Pseudomonas aeruginosa, UniProt O54438); test: Back Assay: FabG-catalyzed oxidation of 3-OH decanoyl-NAC, NADPH fluorescence; type: biochemical
T1 sequence (O54438 1-247): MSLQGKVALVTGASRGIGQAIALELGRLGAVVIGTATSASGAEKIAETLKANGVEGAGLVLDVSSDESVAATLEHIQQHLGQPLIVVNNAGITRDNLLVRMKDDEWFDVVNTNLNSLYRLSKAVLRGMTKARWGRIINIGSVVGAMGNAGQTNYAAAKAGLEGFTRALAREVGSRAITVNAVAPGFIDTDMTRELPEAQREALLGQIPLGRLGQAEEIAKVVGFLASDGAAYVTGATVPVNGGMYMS

FabG [2] = target: T1, FabG; test: Forward Assay: FabG-catalyzed reduction of AcAcCoA, NADPH consumption at 340 nm
[3] = system: Staphylococcus aureus RN4220; test: Phenotypic growth assay S. aureus; type: cell-based
[4] = Lineweaver–Burk plot, 0-200 nM FG01

Km (FabG [1]; NADP+, in the presence of 0.3 mM 3-OH decanoyl-NAC): 290 µM
Molecule: NC(=O)c1ccc[n+]([C@@H]2O[C@H](COP(=O)([O-])OP(=O)(O)OC[C@H]3O[C@@H](n4cnc5c(N)ncnc54)[C@H](OP(=O)(O)O)[C@@H]3O)[C@@H](O)[C@H]2O)c1 [NADP^+]

Km (FabG [2]; NADPH, in the presence of 4 mM AcAcCoA): 290 ± 30 µM
Molecule: NC(=O)C1=CN([C@@H]2O[C@H](COP(=O)(O)OP(=O)(O)OC[C@H]3O[C@@H](n4cnc5c(N)ncnc54)[C@H](OP(=O)(O)O)[C@@H]3O)[C@@H](O)[C@H]2O)C=CC1 [NADPH, reference compound]

Km (FabG [1]; 3-OH decanoyl-NAC, not determinable, response linear at least to 0.3 mM): > 300 µM
Molecule: 3-hydroxydecanoyl-N-acetylcysteamine [3-OH decanoyl-NAC]

Molecule: COc1ccccc1Nc1cccc2nccnc12 [FG48, N-(2-methoxyphenyl)quinoxalin-5-amine]
effect on growth of S. aureus ([3]; concentration/effect curve): completely inhibited the growth

mode of inhibition with respect to AcAcCoA (FabG [2]; [4]): mixed inhibition pattern
Molecule: c1ccc(-c2nc(-n3cnnc3)c3ccccc3n2)cc1 [FG01, 2-phenyl-4-(1,2,4-triazol-4-yl)quinazoline]
mode of inhibition with respect to NADPH (FabG [2]; [4]): noncompetitive mode of inhibition; also recorded: noncompetitive inhibition pattern

Molecule: Cn1ncc2c(NCCO)nc(Nc3ccc(F)c(F)c3)nc21 [FG39, 2-[[6-(3,4-difluoroanilino)-1-methylpyrazolo[3,4-d]pyrimidin-4-yl]amino]ethanol]
inhibition of cell growth ([3]; S. aureus, 100 μM): 35%
